pEC50, pIC50: −log10 of the molar value. Like-named read-outs stand apart in the source and are kept apart here.
How the values were obtained:
[1] = test system: HCV genotype 1b I389Iuc-ubi-neo/NS3-3′/5.1 replicon in Huh5.2 cells; assay: microbe, parasite or virus in culture; format: cell-based, Hepatitis C Virus; conditions: for Selectivity index (CC50/EC50): Huh5.2 replicon assay
Protocol: (§1) Antiviral efficacy against genotype 1 HCV may be tested as follows: One day before addition of the test article, Huh5.2 cells, containing the HCV genotype 1b I389Iuc-ubi-neo/NS3-3′/5.1 replicon (Vrolijk et al., 2003) and subcultured in cell growth medium [DMEM (Cat No. 41965039) supplemented with 10% FCS, 1% non-essential amino acids (11140035), 1% penicillin/streptomycin (15140148) and 2% Geneticin (10131027); Invitrogen] at a ratio of 1.3-1.4 and grown for 3-4 days in […] tissue culture flasks (Techno Plastic Products), were harvested and seeded in assay medium (DMEM, 10% FCS, 1% non-essential amino acids, 1% penicillin/streptomycin) at a density of 6500 cells/well (100 uL/well) in 96-well tissue culture microtitre plates (Falcon, Beckton Dickinson for evaluation of the anti-metabolic effect and CulturPlate, Perkin Elmer for evaluation of antiviral effect). The microtitre plates are incubated overnight (37° C., 5% CO2, 95-99% relative humidity), yielding a non-confluent cell monolayer.
(§2) Dilution series are prepared; each dilution series is performed in at least duplicate. Following assay setup, the microtitre plates are incubated for 72 hours (37° C., 5% CO2, 95-99% relative humidity).
For the evaluation of antiviral effects, assay medium is aspirated and the cell monolayers are washed with PBS. The wash buffer is aspirated, 25 uL of Glo Lysis Buffer (Cat. No. E2661, Promega) is added after which lysis is allowed to proceed for 5 min at room temperature. Subsequently, 50 uL of Luciferase Assay System (Cat. No. E1501, Promega) is added and the luciferase luminescence signal is quantified immediately (1000 ms integration time/well, Safire^2, Tecan). Relative luminescence units are converted to percentage of untreated controls.
(§3) The selectivity index (SI), indicative of the therapeutic window of the compound, is calculated as CC50/EC50.
(§4) Compounds were analysed in the replicon assay using Huh5.2 cells as described in the General Methods.

[2] = test system: Huh5.2 cells; assay: Anti-metabolic effect (MTS) in the replicon cell line; conditions: Huh5.2 cells, 72 hours, MTS metabolic activity
Protocol: as §1, §2
(§5) For the evaluation of anti-metabolic effects, the assay medium is aspirated, replaced with 75 uL of a 5% MTS (Promega) solution in phenol red-free medium and incubated for 1.5 hours (37° C., 5% CO2, 95-99% relative humidity). Absorbance is measured at a wavelength of 498 nm (Safire^2, Tecan) and optical densities (OD values) are converted to percentage of untreated controls.
as §3, §4

[3] = Microsome stability assay, human liver microsomes; format: in vitro ADME; conditions: for stability in human liver microsomes compared to sanglifehrin A (in words): compared to sanglifehrin A (5)
Protocol: (§6) Mouse or human liver microsomes were diluted with buffer C (0.1 M Potassium Phosphate buffer, 1.0 mM EDTA, pH 7.4) to a concentration of 2.5 mg/mL. Microsomal stability samples were then prepared by adding 50 uL of 5 uM compound spiking solution (0.5 uL 10 mM DMSO stock solution in 9.5 uL ACN, added to 990 uL Buffer C) to 50 μL of microsomal solution (2.5 mg/mL), 110 uL Buffer C and mixed well. All samples were pre-incubated for approximately 15 minutes at 37° C. Following this, the reaction was initiated by adding 40 uL of the NADPH solution (12.5 mM) with gentle mixing. Aliquots (40 uL) were removed at 0, 15, 30, 45 and 60 minutes and quenched with ACN containing internal standard (120 uL). Protein was removed by centrifugation (4000 rpm, 15 min) and the sample plate analysed for compound concentration by LC-MS/MS. Half-lives were then calculated by standard methods, comparing the concentration of analyte wth the amount originally present.
(§7) Stability of the compounds in human and mouse liver microsomes was analysed as described in the General Methods. Sanglifehrin A, 5 was included as a comparison.

[4] = Microsome stability assay, mouse liver microsomes; format: in vitro ADME; conditions: for stability in mouse liver microsomes compared to sanglifehrin A (in words): compared to sanglifehrin A (5)
Protocol: as §6, §7

[5] = target: cyclophilin A (CyPA) (Homo sapiens, UniProt P62937); conditions: relative to CsA; cited from earlier work
cyclophilin A (CyPA), sequence (P62937 whole entry): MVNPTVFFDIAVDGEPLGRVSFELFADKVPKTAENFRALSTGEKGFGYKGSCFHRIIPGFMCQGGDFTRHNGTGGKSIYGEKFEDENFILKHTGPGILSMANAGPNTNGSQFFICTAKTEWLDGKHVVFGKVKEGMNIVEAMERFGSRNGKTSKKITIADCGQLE

[6] = test system: HBV; conditions: cited from earlier work
[7] = test system: HIV-1; conditions: clinical, cited from earlier work
[8] = human, in vivo; cited from earlier work
[9] = in vitro; conditions: human
Protocol: as §1, §2, §5, §3, §4

[10] = Huh5.2 cells, HCV genotype 1b replicon, 72 hours, luciferase signal, read-out: EC50
[11] = human liver microsomes, NADPH, 37° C.
[12] = mouse liver microsomes, NADPH, 37° C.
[13] = Hepatitis C virus, Huh-5-2, Huh5.2 cells, HCV genotype 1b replicon, 72 hours, luciferase signal, read-out: EC50
[14] = pH 7.4, human liver microsomes, NADPH, 37° C.
[15] = pH 7.4, mouse liver microsomes, NADPH, 37° C.

Molecule | potency in the Huh5.2 replicon assay (in words) [1] | pEC50 [1, 13] | CC50 [9] [µM] | stability in human liver microsomes compared to sanglifehrin A (in words) [3] | Selectivity index (CC50/EC50) [1] | half-life [3, 14] [min] | stability in mouse liver microsomes compared to sanglifehrin A (in words) [4] | half-life [4, 15] [min] | other results
CC[C@H]1C[C@H](C)[C@@]2(NC1=O)O[C@@H](C[C@H](O)[C@@H](C)CC/C=C/C=C(\C)[C@@H]1C/C=C/C=C/[C@H](O)[C@H](C)[C@@H](O)[C@@H](CCC(C)=O)C(=O)N[C@@H](C(C)C)C(=O)N[C@@H](Cc3cccc(O)c3)C(=O)N3CCC[C@H](N3)C(=O)O1)[C@H](C)[C@H](O)[C@@H]2C [Sanglifehrin A, 5, Sanglifehrin A, reference compound] | less potent |  |  |  |  |  |  |  | pEC50 [1, 10]: 6.50; CC50 [2]: 9.1 µM; Human liver microsome half life [3, 11]: 6.38 min; Mouse liver microsome half life [4, 12]: 6.15 min; higher affinity for CyPA compared to CsA [5]: approximately 20 fold
C/C=C/C[C@@H](C)[C@@H](O)[C@H]1C(=O)N[C@@H](CC)C(=O)N(C)[C@H](C)C(=O)N(CC)[C@@H](C(C)C)C(=O)N[C@@H](C(C)C)C(=O)N(C)[C@@H](CC(C)C)C(=O)N[C@@H](C)C(=O)N[C@H](C)C(=O)N(C)[C@@H](CC(C)C)C(=O)N(C)[C@@H](CC(C)C)C(=O)N(C)[C@@H](C(C)C)C(=O)N1C [DEBIO-025] |  |  |  |  |  |  |  |  | pIC50 ([6]; Ptak et al. 2008, read-out: IC50 against HBV): 5.39; reduction of HIV-1 RNA levels (in words) ([7]; 27 of the treated patients (Steyn et al., 2006)): no reduction; reduction of HIV-1 RNA levels ([7]; in nine patients (Steyn et al., 2006)): ≥ 0.5 log 10 copies/mL; reduction of HIV-1 RNA levels ([7]; in two patients (Steyn et al., 2006)): > 1 log 10 copies/mL; discontinuation of treatment caused by hyperbilirubinemia [8]: 4 out of 16
CC[C@H]1C[C@H](C)[C@@]2(NC1=O)O[C@@H](C[C@H](O)[C@@H](C)CC/C=C/C=C(\C)[C@@H]1C/C=C/C=C/[C@H](O)[C@H](C)[C@@H](O)[C@@H](CCC(C)=O)C(=O)N[C@@H](C(C)C)C(=O)N[C@@H](Cc3ccccc3)C(=O)N3CCCC(N3)C(=O)O1)[C@H](C)[C@H](O)[C@@H]2C (stereo partly shown) [Compound 18, 61-Deshydroxy Sanglifehrin A] |  | 5.47 | 11.7 | increased stability |  |  |  |  | half-life at 1 µM [3, 14]: 7.64 min; half-life at 1 µM [4, 15]: 3.46 min
CC(=O)CC[C@H]1C(=O)N[C@@H](C(C)C)C(=O)N[C@@H](Cc2cccc(O)c2)C(=O)N2CCC[C@H](N2)C(=O)O[C@H](/C(C)=C/CO)C/C=C/C=C/[C@H](O)[C@H](C)[C@H]1O [Hydroxymacrocycle, 6, reference compound] |  | 5.08 | 83.6 |  | 9.9 |  |  |  | 
CC[C@H]1C[C@H](C)[C@@]2(NC1=O)O[C@@H](C[C@H](O)[C@@H](C)CC/C=C/C=C(\C)[C@@H]1C/C=C/C=C/[C@H](O)[C@H](C)[C@@H](O)[C@@H](CCC(C)=O)C(=O)N[C@@H](C(C)C)C(=O)N[C@@H](Cc3cc(O)c(F)c(F)c3)C(=O)N3CCCC(N3)C(=O)O1)[C@H](C)[C@H](O)[C@@H]2C (stereo partly shown) [Compound 15, 62,63-Fluoro Sanglifehrin A] | very potent | 6.71 | 16.6 | increased stability | 88 | 10.8 | more stable | 9.22 | 
CC[C@H]1C[C@H](C)[C@@]2(NC1=O)O[C@@H](C[C@H](O)[C@@H](C)CC/C=C/C=C(\C)[C@@H]1C/C=C/C=C/[C@H](O)[C@H](C)[C@@H](O)[C@@H](CCC(C)=O)C(=O)N[C@@H](C(C)C)C(=O)N[C@@H](Cc3ccc(C)c(O)c3)C(=O)N3CCCC(N3)C(=O)O1)[C@H](C)[C@H](O)[C@@H]2C (stereo partly shown) [Compound 17, 62-Methyl Sanglifehrin A] | very potent | 7.08 | 11.6 | increased stability | 143 | 9.5 | more stable | 9.67 | 
58-des(3-hydroxyphenyl)-58-(3-hydroxy(2-pyridyl)-sanglifehrin A [Compound 19] |  |  |  | increased stability |  |  |  |  | pEC50 [1, 10]: 4.61; CC50 [2]: 48.1 µM; Human liver microsome half life [3, 11]: 10.37 min; Mouse liver microsome half life [4, 12]: 4.71 min
CC[C@H]1C[C@H](C)[C@@]2(NC1=O)O[C@@H](C[C@H](O)[C@@H](C)CC/C=C/C=C(\C)[C@@H]1C/C=C/C=C/[C@H](O)[C@H](C)[C@@H](O)[C@@H](CCC(C)=O)C(=O)N[C@@H](C(C)C)C(=O)N[C@@H](Cc3ccc(F)c(O)c3)C(=O)N3CCCC(N3)C(=O)O1)[C@H](C)[C@H](O)[C@@H]2C (stereo partly shown) [Compound 16, 62-Fluoro Sanglifehrin A] | very potent | 6.05 | 29.7 | increased stability | 32 | 6.61 |  | 5.48 | 
CC[C@H]1C[C@H](C)[C@@]2(NC1=O)O[C@@H](C[C@H](O)[C@@H](C)CC/C=C/C=C(\C)[C@@H]1C/C=C/C=C/[C@H](O)[C@H](C)[C@@H](O)[C@@H](CCC(C)=O)C(=O)N[C@@H](C(C)C)C(=O)N[C@@H](Cc3cc(O)cc(F)c3)C(=O)N3CCCC(N3)C(=O)O1)[C@H](C)[C@H](O)[C@@H]2C (stereo partly shown) [Compound 14, 63-Fluoro Sanglifehrin a] | very potent | 6.87 | 12.8 | increased stability | 121 | 9.32 | more stable | 9.78 | 
C/C=C/CC(C)C(O)C1C(=O)NC(CC)C(=O)N(C)CC(=O)N(C)C(CC(C)C)C(=O)NC(C(C)C)C(=O)N(C)C(CC(C)C)C(=O)NC(C)C(=O)NC(C)C(=O)N(C)C(CC(C)C)C(=O)N(C)C(CC(C)C)C(=O)N(C)C(C(C)C)C(=O)N1C (stereo not shown) [Cyclosporine A, 1, Cyclosporine A, reference compound] | less potent |  |  |  |  |  |  |  | pEC50 ([1]; Hepatitis C virus, Huh-5-2, 72 h): 6.70; IC50 against HBV ([6]; Xie et al., 2007): > 1.3 µg/mL

Source: US9271977B2, “Sanglifehrin derivatives and methods for their production” (NeuroVive Pharmaceutical AB, priority 2010, dated 2016)
